Assay results as given in PubChem BioAssay AID651650 (Sanford-Burnham Center for Chemical Genomics, 2012).
Active and inactive are the calls of the source.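 How the source made its calls: active means mean IC50 below 20 µM in each of the two panels, so potent in both; inactive means the rest.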

Target: Neuropilin-1 (Homo sapiens) (UniProt O14786)
Experiment: blockers of CendR peptide binding to NRP-1 – biochemical, FP and AlphaScreen panel, dose response (AID 651650)
Conditions: NRP-1 b1b2 / RPARPAR peptide binding, FP or AlphaScreen; FP, mean of runs

Chain of Neuropilin-1 (Homo sapiens) (O14786 whole entry, looked up): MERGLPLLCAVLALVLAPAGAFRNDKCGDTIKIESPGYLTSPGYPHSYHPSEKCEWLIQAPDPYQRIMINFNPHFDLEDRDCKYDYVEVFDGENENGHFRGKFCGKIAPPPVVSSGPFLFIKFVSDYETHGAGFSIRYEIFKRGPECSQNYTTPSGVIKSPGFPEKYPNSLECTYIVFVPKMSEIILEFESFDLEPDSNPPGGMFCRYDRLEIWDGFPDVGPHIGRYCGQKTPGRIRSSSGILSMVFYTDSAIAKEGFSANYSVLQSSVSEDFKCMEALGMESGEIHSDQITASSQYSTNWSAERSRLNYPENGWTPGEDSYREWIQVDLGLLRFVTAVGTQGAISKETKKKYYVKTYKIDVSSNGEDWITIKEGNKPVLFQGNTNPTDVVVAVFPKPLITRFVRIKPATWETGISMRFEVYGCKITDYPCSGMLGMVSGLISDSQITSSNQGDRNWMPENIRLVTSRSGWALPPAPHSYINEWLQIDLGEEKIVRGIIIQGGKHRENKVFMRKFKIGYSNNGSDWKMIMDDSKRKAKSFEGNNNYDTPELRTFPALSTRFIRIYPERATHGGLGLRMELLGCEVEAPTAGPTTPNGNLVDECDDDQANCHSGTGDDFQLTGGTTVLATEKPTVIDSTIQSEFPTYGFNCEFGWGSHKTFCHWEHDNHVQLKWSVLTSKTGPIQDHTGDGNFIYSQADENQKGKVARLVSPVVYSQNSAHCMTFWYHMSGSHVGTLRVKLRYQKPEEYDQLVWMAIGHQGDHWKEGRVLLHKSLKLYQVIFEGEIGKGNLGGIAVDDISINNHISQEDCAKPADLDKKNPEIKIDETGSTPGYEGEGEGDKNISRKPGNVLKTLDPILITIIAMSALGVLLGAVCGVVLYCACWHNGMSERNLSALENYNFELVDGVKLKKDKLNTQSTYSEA

Row | SMILES | IC50
1 | CCOc1ccc(N2C(=O)CC(N3CCN(c4ccc(Cl)cc4)CC3)C2=O)cc1 (stereo not drawn) | > 95 µM (inactive)
2 | C=C1CCN(C(C(=O)OC)C(C)C)S(=O)(=O)c2ccc(F)cc21 (stereo not drawn) | > 95 µM (inactive)
3 | CC(=O)Nc1ccc(NC(=O)C2CC(=O)N(c3ccc(Cl)cc3)C2)cc1 (stereo not drawn) | > 95 µM (inactive)
4 | CC(C)(C)OC(=O)N1CCC(NC(=O)c2nc[nH]c2C(=O)N2CCc3ccccc3C2)CC1 | > 95 µM (inactive)
5 | O=C(NCCOC(=O)c1ccccc1)c1ccccc1 | > 95 µM (inactive)
6 | COc1ccc(/C=N/NC(=O)c2ccccc2Cl)cc1CSc1nc2ccccc2s1 | > 95 µM (inactive)
7 | NC(=O)C1=C[C@H](c2ccc(Br)cc2)C[C@H](OCc2ccc(CO)cc2)O1 | > 95 µM (inactive)
8 | FC(F)(F)C1CC(c2cccs2)Nc2ncnn21 (stereo not drawn) | > 95 µM (inactive)
9 | CCOc1ccccc1N1CCN(C(=O)c2ccncc2)CC1 | > 95 µM (inactive)
10 | O=C(Cn1ccc(NC(=O)OCc2ccccc2)nc1=O)NCCCn1ccnc1 | > 95 µM (inactive)
11 | Cc1cc(S(=O)(=O)NC2CCCCC2)ccc1OCC(=O)N1CCOCC1 | > 95 µM (inactive)
12 | Cc1cc(NC(=O)CCC(=O)NNC(=O)c2ccc(C(C)(C)C)cc2)no1 | > 95 µM (inactive)
13 | CC(C)(C)C(=O)c1cnc(Nc2ccccc2)s1 | > 95 µM (inactive)
14 | CN1C(=O)c2oc3ccccc3c(=O)c2C1c1ccccn1 (stereo not drawn) | inactive
15 | O=C(O)CSc1nnc(-c2ccc(Cl)cc2Cl)n1-c1ccc(Cl)cc1 | inactive
16 | COc1ccc(C(C(=O)NC(C)(C)C)N(C(=O)CCC(=O)Nc2cc(C)on2)c2c(C)cccc2C)cc1 (stereo not drawn) | > 95 µM (inactive)
17 | CCC(=NCCc1ccccc1)c1c(O)n(C2CCCCC2)c(=O)[nH]c1=O | > 95 µM (inactive)
18 | CCN1C(=O)C(=O)c2cc(C)ccc21 | > 95 µM (inactive)
19 | CC1CCC(NC(=O)CSc2nncn2C)CC1 (stereo not drawn) | > 95 µM (inactive)
20 | Cc1ccc(NC(=S)N2CCN(Cc3ccccc3)CC2)cc1 | > 95 µM (inactive)
21 | CCCCCc1c(-c2cccc(Cl)c2)ncn1CCc1ccccc1OC | > 95 µM (inactive)
22 | Cc1onc(-c2ccccc2)c1C(=O)Nc1c(C)n(C)n(-c2ccccc2)c1=O | > 95 µM (inactive)
23 | O=C1CCN(Cc2ccccc2)S(=O)(=O)c2ccccc21 | > 95 µM (inactive)

Same assay, conditions: NRP-1 b1b2 / RPARPAR peptide binding, FP or AlphaScreen; FP, run 1; individual panel run IC50

Row | SMILES | IC50
24 | COc1ccc(S(=O)(=O)N2CCCCC2)cc1NC(=O)c1c(F)cccc1Cl | > 95 µM
25 | Cn1c(=O)c2c(nc(OCc3cccnc3)n2Cc2ccccc2)n(C)c1=O | > 95 µM
26 | Cc1ccc(/C=N/Nc2nc3ccccc3[nH]2)s1 | > 95 µM
27 | NC(N)=NCCC[C@H](NC(=O)OCc1ccccc1)C(=O)O | > 95 µM
28 | CN(C)CCOC(c1ccc(Cl)cc1)c1ccccn1 (stereo not drawn) | > 95 µM
29 | CN(Cc1ccccc1)C(=O)c1nc[nH]c1C(=O)N1CCN(C(=O)OC(C)(C)C)CC1 | > 95 µM
30 | Cc1cccc(N(CC(=O)NC2CCCC2)C(=O)CS(=O)CC(=O)Nc2ccc3c(c2)OCO3)c1C (stereo not drawn) | > 95 µM
31 | Cn1c(=O)c2c(ncn2CC(COCc2ccccc2)OCc2ccccc2)n(C)c1=O (stereo not drawn) | > 95 µM
32 | Cc1ccc(C(=O)N/C(=C\c2sccc2C)C(=O)NCc2ccco2)cc1 | > 95 µM
33 | COc1cc(Cn2nnc3ccccc32)cc(Br)c1O | > 95 µM
34 | O=C1CSC(c2cn(-c3ccccc3)nc2-c2cccs2)N1CC1CCCO1 (stereo not drawn) | > 95 µM
35 | O=C(c1ccccn1)N1CCN(S(=O)(=O)c2ccccc2)CC1 | > 95 µM
36 | COc1ccncc1-c1csc(C(O)c2ccccc2)n1 (stereo not drawn) | > 95 µM
37 | Cc1cccc(C)c1Nc1nnc(SCC(=O)Nc2cc(S(=O)(=O)N3CCCCC3)ccc2Cl)s1 | > 95 µM
38 | CCC1CCCCN1C(=S)Nc1ccc(OC(F)F)cc1 (stereo not drawn) | > 95 µM
39 | O=C(CSc1nnc(CNC(=O)C23CC4CC(CC(C4)C2)C3)n1-c1ccccc1)Nc1ccc(F)cc1 | > 95 µM
40 | CC1CCN(C(=O)CSc2nncn2C)CC1 | > 95 µM
41 | Cc1ccc(NC=C(S(=O)(=O)c2ccccc2)S(=O)(=O)c2ccccc2)cc1 | > 95 µM
42 | Cc1ccc(C(=O)Nc2ccccc2-c2ccccc2)cc1S(=O)(=O)Nc1ccccc1 | > 95 µM
43 | CC(=O)Nc1ccc(NC(=O)C2CC(=O)N=C(N)S2)cc1 (stereo not drawn) | > 95 µM
44 | O=C(NCc1ccccc1)c1ccc(N2CCC3(CC2)CC(c2ccc(Cl)cc2)=NO3)c([N+](=O)[O-])c1 | > 95 µM
45 | Cc1occc1C(=O)N1N=C(C2CC2)CC1(O)C(F)(F)F (stereo not drawn) | > 95 µM
46 | CCOc1ccc(N2C(=O)CC(N3CCN(c4ccc(Cl)cc4)CC3)C2=O)cc1 (stereo not drawn) | > 95 µM

Row | SMILES | IC50
47 | C=C1CCN(C(C(=O)OC)C(C)C)S(=O)(=O)c2ccc(F)cc21 (stereo not drawn) | > 95 µM
48 | CC(=O)Nc1ccc(NC(=O)C2CC(=O)N(c3ccc(Cl)cc3)C2)cc1 (stereo not drawn) | > 95 µM
49 | CC(C)(C)OC(=O)N1CCC(NC(=O)c2nc[nH]c2C(=O)N2CCc3ccccc3C2)CC1 | > 95 µM
50 | O=C(NCCOC(=O)c1ccccc1)c1ccccc1 | > 95 µM
51 | COc1ccc(/C=N/NC(=O)c2ccccc2Cl)cc1CSc1nc2ccccc2s1 | > 95 µM
52 | NC(=O)C1=C[C@H](c2ccc(Br)cc2)C[C@H](OCc2ccc(CO)cc2)O1 | > 95 µM
53 | FC(F)(F)C1CC(c2cccs2)Nc2ncnn21 (stereo not drawn) | > 95 µM
54 | CCOc1ccccc1N1CCN(C(=O)c2ccncc2)CC1 | > 95 µM
55 | O=C(Cn1ccc(NC(=O)OCc2ccccc2)nc1=O)NCCCn1ccnc1 | > 95 µM
56 | Cc1cc(S(=O)(=O)NC2CCCCC2)ccc1OCC(=O)N1CCOCC1 | > 95 µM
57 | Cc1cc(NC(=O)CCC(=O)NNC(=O)c2ccc(C(C)(C)C)cc2)no1 | > 95 µM
58 | CC(C)(C)C(=O)c1cnc(Nc2ccccc2)s1 | > 95 µM
59 | CN1C(=O)c2oc3ccccc3c(=O)c2C1c1ccccn1 (stereo not drawn) | 25.1 µM
60 | O=C(O)CSc1nnc(-c2ccc(Cl)cc2Cl)n1-c1ccc(Cl)cc1 | > 95 µM
61 | COc1ccc(C(C(=O)NC(C)(C)C)N(C(=O)CCC(=O)Nc2cc(C)on2)c2c(C)cccc2C)cc1 (stereo not drawn) | > 95 µM
62 | CCC(=NCCc1ccccc1)c1c(O)n(C2CCCCC2)c(=O)[nH]c1=O | > 95 µM
63 | CCN1C(=O)C(=O)c2cc(C)ccc21 | > 95 µM
64 | CC1CCC(NC(=O)CSc2nncn2C)CC1 (stereo not drawn) | > 95 µM
65 | Cc1ccc(NC(=S)N2CCN(Cc3ccccc3)CC2)cc1 | > 95 µM
66 | CCCCCc1c(-c2cccc(Cl)c2)ncn1CCc1ccccc1OC | > 95 µM
67 | Cc1onc(-c2ccccc2)c1C(=O)Nc1c(C)n(C)n(-c2ccccc2)c1=O | > 95 µM
68 | O=C1CCN(Cc2ccccc2)S(=O)(=O)c2ccccc21 | > 95 µM

Same assay, conditions: NRP-1 b1b2 / RPARPAR peptide binding, FP or AlphaScreen; FP, run 2; individual panel run IC50

Row | SMILES | IC50
69 | COc1ccc(S(=O)(=O)N2CCCCC2)cc1NC(=O)c1c(F)cccc1Cl | > 95 µM
70 | Cn1c(=O)c2c(nc(OCc3cccnc3)n2Cc2ccccc2)n(C)c1=O | > 95 µM
71 | Cc1ccc(/C=N/Nc2nc3ccccc3[nH]2)s1 | > 95 µM
72 | NC(N)=NCCC[C@H](NC(=O)OCc1ccccc1)C(=O)O | > 95 µM
73 | CN(C)CCOC(c1ccc(Cl)cc1)c1ccccn1 (stereo not drawn) | > 95 µM
74 | CN(Cc1ccccc1)C(=O)c1nc[nH]c1C(=O)N1CCN(C(=O)OC(C)(C)C)CC1 | > 95 µM
75 | Cc1cccc(N(CC(=O)NC2CCCC2)C(=O)CS(=O)CC(=O)Nc2ccc3c(c2)OCO3)c1C (stereo not drawn) | > 95 µM
76 | Cn1c(=O)c2c(ncn2CC(COCc2ccccc2)OCc2ccccc2)n(C)c1=O (stereo not drawn) | > 95 µM
77 | Cc1ccc(C(=O)N/C(=C\c2sccc2C)C(=O)NCc2ccco2)cc1 | > 95 µM
78 | COc1cc(Cn2nnc3ccccc32)cc(Br)c1O | > 95 µM
79 | O=C1CSC(c2cn(-c3ccccc3)nc2-c2cccs2)N1CC1CCCO1 (stereo not drawn) | > 95 µM
80 | O=C(c1ccccn1)N1CCN(S(=O)(=O)c2ccccc2)CC1 | > 95 µM
81 | COc1ccncc1-c1csc(C(O)c2ccccc2)n1 (stereo not drawn) | > 95 µM
82 | Cc1cccc(C)c1Nc1nnc(SCC(=O)Nc2cc(S(=O)(=O)N3CCCCC3)ccc2Cl)s1 | > 95 µM
83 | CCC1CCCCN1C(=S)Nc1ccc(OC(F)F)cc1 (stereo not drawn) | > 95 µM
84 | O=C(CSc1nnc(CNC(=O)C23CC4CC(CC(C4)C2)C3)n1-c1ccccc1)Nc1ccc(F)cc1 | > 95 µM
85 | CC1CCN(C(=O)CSc2nncn2C)CC1 | > 95 µM
86 | Cc1ccc(NC=C(S(=O)(=O)c2ccccc2)S(=O)(=O)c2ccccc2)cc1 | > 95 µM
87 | Cc1ccc(C(=O)Nc2ccccc2-c2ccccc2)cc1S(=O)(=O)Nc1ccccc1 | > 95 µM
88 | CC(=O)Nc1ccc(NC(=O)C2CC(=O)N=C(N)S2)cc1 (stereo not drawn) | > 95 µM
89 | O=C(NCc1ccccc1)c1ccc(N2CCC3(CC2)CC(c2ccc(Cl)cc2)=NO3)c([N+](=O)[O-])c1 | > 95 µM
90 | Cc1occc1C(=O)N1N=C(C2CC2)CC1(O)C(F)(F)F (stereo not drawn) | > 95 µM
91 | CCOc1ccc(N2C(=O)CC(N3CCN(c4ccc(Cl)cc4)CC3)C2=O)cc1 (stereo not drawn) | > 95 µM

Row | SMILES | IC50
92 | C=C1CCN(C(C(=O)OC)C(C)C)S(=O)(=O)c2ccc(F)cc21 (stereo not drawn) | > 95 µM
93 | CC(=O)Nc1ccc(NC(=O)C2CC(=O)N(c3ccc(Cl)cc3)C2)cc1 (stereo not drawn) | > 95 µM
94 | CC(C)(C)OC(=O)N1CCC(NC(=O)c2nc[nH]c2C(=O)N2CCc3ccccc3C2)CC1 | > 95 µM
95 | O=C(NCCOC(=O)c1ccccc1)c1ccccc1 | > 95 µM
96 | COc1ccc(/C=N/NC(=O)c2ccccc2Cl)cc1CSc1nc2ccccc2s1 | > 95 µM
97 | NC(=O)C1=C[C@H](c2ccc(Br)cc2)C[C@H](OCc2ccc(CO)cc2)O1 | > 95 µM
98 | FC(F)(F)C1CC(c2cccs2)Nc2ncnn21 (stereo not drawn) | > 95 µM
99 | CCOc1ccccc1N1CCN(C(=O)c2ccncc2)CC1 | > 95 µM
100 | O=C(Cn1ccc(NC(=O)OCc2ccccc2)nc1=O)NCCCn1ccnc1 | > 95 µM
101 | Cc1cc(S(=O)(=O)NC2CCCCC2)ccc1OCC(=O)N1CCOCC1 | > 95 µM
102 | Cc1cc(NC(=O)CCC(=O)NNC(=O)c2ccc(C(C)(C)C)cc2)no1 | > 95 µM
103 | CC(C)(C)C(=O)c1cnc(Nc2ccccc2)s1 | > 95 µM
104 | CN1C(=O)c2oc3ccccc3c(=O)c2C1c1ccccn1 (stereo not drawn) | 21.4 µM
105 | O=C(O)CSc1nnc(-c2ccc(Cl)cc2Cl)n1-c1ccc(Cl)cc1 | 34.4 µM
106 | COc1ccc(C(C(=O)NC(C)(C)C)N(C(=O)CCC(=O)Nc2cc(C)on2)c2c(C)cccc2C)cc1 (stereo not drawn) | > 95 µM
107 | CCC(=NCCc1ccccc1)c1c(O)n(C2CCCCC2)c(=O)[nH]c1=O | > 95 µM
108 | CCN1C(=O)C(=O)c2cc(C)ccc21 | > 95 µM
109 | CC1CCC(NC(=O)CSc2nncn2C)CC1 (stereo not drawn) | > 95 µM
110 | Cc1ccc(NC(=S)N2CCN(Cc3ccccc3)CC2)cc1 | > 95 µM
111 | CCCCCc1c(-c2cccc(Cl)c2)ncn1CCc1ccccc1OC | > 95 µM
112 | Cc1onc(-c2ccccc2)c1C(=O)Nc1c(C)n(C)n(-c2ccccc2)c1=O | > 95 µM
113 | O=C1CCN(Cc2ccccc2)S(=O)(=O)c2ccccc21 | > 95 µM
